Test results reported in paper PMC6938345, “Inhibition of complement activation, myeloperoxidase, NET formation and oxidant activity by PIC1 peptide variants” (PLoS ONE, 2019).
“Also recorded” adds a separate entry of the source.

How the values were obtained:
[1] = Peptide solubility in water
Method: (PA) (Table 1) were synthesized by New England Peptide (Gardner, MA) to >90% purity. Sarcosine variants and PEG were dissolved in water and the pH was adjusted with NaOH. PA was dissolved in DMSO and then brought up to the final concentration with water resulting in 30% DMSO and pH adjusted. Antibody sensitized sheep erythrocytes (EA), purified C1q and factor B-depleted human sera were purchased from Complement Technology (Tyler, TX). Purified myeloperoxidase was purchased from Lee BioSolutions (Maryland Heights, MO) and tetramethylbenzidine (TMB) and PicoGreen were purchased from Thermo Fisher (Waltham MA).
(PA), peptide derivatives were synthesized with sarcosine residues substituted at all 15 positions, included a peptide in which the vicinal cysteines at positions 9 and 10 (C9,C10) were replaced with a single sarcosine residue (Table 1).

[2] = system: antibody-initiated complement activation (type O sera + type AB red blood cells); assay: ABO incompatibility hemolytic assay (CH50-type, ex vivo); format: cell-based, human; conditions: peptides 1.8 mM
Method: For hemolytic complement assays, human red blood cells (RBCs) from type AB donors were purified, washed and standardized to 1 × 10^9 cells/ml, as previously described. Human sera from type O donors at a 20% final concentration was combined with 1 mM PIC1 or sarcosine variant peptides and the volume was brought up to 0.15 ml with GVBS^++ and 0.5 ml RBCs. For factor B-depleted sera hemolytic assays, a final of 0.005% factor B depleted sera was incubated with 1 mM PIC1 or sarcosine variant peptides with 0.1 ml antibody-sensitized sheep red blood cells (EA) in a final volume of 0.75 ml GVBS^++. The samples were incubated for 1 hour at 37 °C and then 1.0 ml of GVBS^-—was added to the factor B-depleted samples to stop the reaction. The samples were spun at 3,000 rpm for 5 minutes and the supernatant was collected and read at 412 nm. Values are represented as a percent of the positive control, which consists of human O sera and AB red blood cells in GVBS^++ buffer.
In order to evaluate the extent to which the peptide variants inhibit antibody-initiated complement activation, we tested them in two hemolytic assays including an ABO incompatibility ex vivo assay (Fig 1A) and a classical pathway CH50-type assay in factor B-depleted sera (Fig 1B). In the ABO incompatibility hemolytic assay, purified erythrocytes from a ‘type AB+’ donor are incubated with sera from a ‘type O’ subject containing anti-A and anti-B antibodies; peptides were tested at 1.8 mM. […] We then performed a CH50-type hemolytic assay, with antibody-sensitized sheep erythrocytes, isolating the classical pathway by utilizing factor B-depleted sera; peptides were tested at 0.4 mM.
Fig 1 Sarcosine variant inhibition of complement activation in hemolytic assays and C1q binding. A) Inhibition of ABO incompatibility hemolysis in a CH50-type assay. Peptides are at a final concentration of 1.8 mM. […] Data are the means of n = 4 independent experiments + SEM. B) Inhibition of classical complement pathway-mediated hemolysis in factor B-depleted sera in a CH50-type assay. Peptides are at a final concentration of 0.4 mM. Data are the means of n = 4 independent experiments + SEM. C) Binding of increasing concentrations of sarcosine variants to purified C1q in an ELISA-type assay. Data are the means of n = 3 independent experiments ± SEM. D) Half-maximal binding concentrations were calculated for each peptide’s binding curve.

C1q = molecular target: T1, C1q (Homo sapiens, UniProt P02745+P02746+P02747); assay: C1q binding ELISA-type assay; conditions: C1q as capture substrate
T1 construct: purchased Complement Technology (Tyler, TX)
Method: (§1) An Immunlon-2 HB ELISA plate was coated with 1 μg/ml C1q or MPO in bicarbonate buffer overnight at 4 °C. The plates were washed with PBST (phosphate buffered saline + 0.1% Tween) and then blocked with 1% gelatin/PBS for 2 hours at room temperature. After washing, the plates were incubated with PA or sarcosine variant peptides starting at 2.5 mg/ml and then serially diluted in 1% gelatin/PBS for 1 hour at room temperature. After washing, the plates were probed with rabbit anti-PA (developed with Cocalico Biologicals, Reamstown, PA) at 1:1000 in 1% gelatin/PBS for 1 hour, room temperature, followed by a goat anti-rabbit HRP (Sigma Aldrich, St Louis, MO) at 1:1,000 in 1% gelatin/PBS for 1 hour at room temperature with a washing step in between. Wells were developed using TMB substrate solution, stopped using 1 N H2SO4, and read at 450 nm in a plate reader.
We then tested peptide variant binding to C1q in an ELISA-type assay in which the C1q is used as the capture substrate. Binding curves for each peptide is shown in Fig 1C, from which half-maximal binding concentrations were calculated (Fig 1D). […] Higher concentrations of DMSO interfere with the detecting reagents resulting in a partial binding curve.

MPO = molecular target: T2, MPO (Homo sapiens, UniProt P05164); assay: MPO binding ELISA-type assay; conditions: solid phased MPO, plate-based
T2 construct: purchased Lee BioSolutions (Maryland Heights, MO)
T2 sequence (P05164 49-745): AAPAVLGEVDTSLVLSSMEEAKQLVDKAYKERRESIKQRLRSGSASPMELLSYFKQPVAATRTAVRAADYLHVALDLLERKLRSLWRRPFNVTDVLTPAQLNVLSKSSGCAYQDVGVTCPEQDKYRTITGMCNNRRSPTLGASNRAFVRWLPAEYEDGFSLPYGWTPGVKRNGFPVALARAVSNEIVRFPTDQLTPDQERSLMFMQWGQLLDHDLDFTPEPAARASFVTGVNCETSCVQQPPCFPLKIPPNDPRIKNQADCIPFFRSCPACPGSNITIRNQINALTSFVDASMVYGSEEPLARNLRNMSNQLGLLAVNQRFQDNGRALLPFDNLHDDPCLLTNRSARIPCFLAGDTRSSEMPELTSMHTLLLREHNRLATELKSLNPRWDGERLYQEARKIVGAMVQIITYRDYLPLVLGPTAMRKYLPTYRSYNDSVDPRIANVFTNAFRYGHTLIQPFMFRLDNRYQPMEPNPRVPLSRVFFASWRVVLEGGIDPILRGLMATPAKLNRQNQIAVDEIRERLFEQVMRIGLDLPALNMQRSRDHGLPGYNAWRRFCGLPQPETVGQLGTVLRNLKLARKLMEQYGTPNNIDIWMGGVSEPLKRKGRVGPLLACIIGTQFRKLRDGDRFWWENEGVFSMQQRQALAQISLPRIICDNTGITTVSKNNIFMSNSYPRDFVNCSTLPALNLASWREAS
Method: as §1
We then tested the binding of the peptide variants to solid phased MPO in a plate-based assay. The binding curves are shown in Fig 2C with MPO binding identified for all variants except C9,10. Due to the near complete overlay of the I8 and PA curves, the PA curve is not shown in the graph. Half-maximal (Fig 2D) binding concentrations were calculated from these curves.

T1 sequence (P02745 23-245): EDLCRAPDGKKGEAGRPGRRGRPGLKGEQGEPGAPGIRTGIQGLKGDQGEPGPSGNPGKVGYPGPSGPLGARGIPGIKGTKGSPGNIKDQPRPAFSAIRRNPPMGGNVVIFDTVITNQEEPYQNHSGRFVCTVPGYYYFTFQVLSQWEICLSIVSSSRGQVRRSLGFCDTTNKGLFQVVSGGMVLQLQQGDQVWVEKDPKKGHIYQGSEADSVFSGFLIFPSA
T1 sequence (P02746 28-253): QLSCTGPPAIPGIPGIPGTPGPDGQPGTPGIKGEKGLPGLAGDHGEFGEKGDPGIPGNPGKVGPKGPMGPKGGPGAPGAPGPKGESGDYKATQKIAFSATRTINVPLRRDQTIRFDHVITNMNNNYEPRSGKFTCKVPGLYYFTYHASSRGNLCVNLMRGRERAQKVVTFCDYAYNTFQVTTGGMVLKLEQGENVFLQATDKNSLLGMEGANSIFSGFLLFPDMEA
T1 sequence (P02747 29-245): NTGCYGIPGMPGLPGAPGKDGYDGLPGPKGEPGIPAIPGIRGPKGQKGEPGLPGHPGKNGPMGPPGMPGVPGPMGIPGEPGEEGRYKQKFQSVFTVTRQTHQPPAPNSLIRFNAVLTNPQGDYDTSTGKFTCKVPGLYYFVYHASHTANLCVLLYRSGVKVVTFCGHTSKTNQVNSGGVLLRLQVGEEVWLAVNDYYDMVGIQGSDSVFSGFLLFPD

Q: Which “solubility in water (in words)” value [1] does the source give for `CC[C@H](C)[C@H](N)C(=O)N[C@@H](C)C(=O)N[C@@H](CC(C)C)C(=O)N[C@H](C(=O)N[C@@H](CC(C)C)C(=O)N[C@@H](CCC(=O)O)C(=O)N1CCC[C@H]1C(=O)N(C)CC(=O)N[C@@H](CS)C(=O)N[C@@H](CS)C(=O)N[C@@H](CCC(N)=O)C(=O)N[C@@H](CCC(=O)O)C(=O)N[C@@H](CCCNC(=N)N)C(=O)N[C@@H](C)C(=O)N[C@@H](C)C(=O)O)[C@@H](C)CC` [I8] here?
A: soluble in water

Q: And the ABO hemolysis ([2]; Avg of n = 4, concentration basis of PIC1 not stated)?
A: 13.50 % of Control

Q: What about the “inhibition of ABO incompatible hemolysis (in words)” value [2] of the same compound?
A: to a greater extent than did the PA-dPEG24

Q: What about the “decrease of ABO hemolysis more than PA-dPEG24” value ([2]; equimolar basis, P < 0.002) of the same compound?
A: 53%

Q: And the “binding to C1q (in words)” value (C1q)?
A: superior binding to C1q; also recorded: slightly superior to that of PA-dPEG24

Q: And the “binding to MPO (in words)” value (MPO)?
A: superior binding to MPO
